Measured values published in ChEMBL document CHEMBL4359843, “Linear and Rationally Designed Stapled Peptides Abrogate TLR4 Pathway and Relieve Inflammatory Symptoms in Rheumatoid Arthritis Rat Model” (J Med Chem, 2019).
Active and inactive are the calls of the source. The calls are words filed in the database; no cut-off is given here. Where a SMILES comes first, the peptide text is derived from it. Bridges are numbered along the chain shown (N, C = ends).

Assays:
[1] = tested on: Rattus norvegicus; assay: Antiarthritic activity in Lewis rat model of complete Freund's adjuvant-induced arthritis assessed as appearance of rounded mature chondrocytes surrounded by GAG deposition at 1 nmol/g administered intra-articularly into knee joint and measured on third week by Safranin-O staining based histopathological analysis; format: functional, organism-based
[2] = target: TLR7 and TLR8 (Homo sapiens) (UniProt Q9NYK1+Q9NR97); assay: Antagonist activity at TLR7/8 in human THP1 cells assessed as reduction in R848-induced IL6 secretion at 50 uM after 24 hrs by ELISA; format: cell-based
[3] = target: Toll-like receptor 4 (Homo sapiens, UniProt O00206); assay: Antagonist activity at TLR4 in human PBMC cells assessed as reduction in LPS-induced NFkappaB p65 phosphorylation at 80 uM after 15 to 30 mins by Western blot analysis; format: cell-based
Toll-like receptor 4, sequence (O00206 whole entry): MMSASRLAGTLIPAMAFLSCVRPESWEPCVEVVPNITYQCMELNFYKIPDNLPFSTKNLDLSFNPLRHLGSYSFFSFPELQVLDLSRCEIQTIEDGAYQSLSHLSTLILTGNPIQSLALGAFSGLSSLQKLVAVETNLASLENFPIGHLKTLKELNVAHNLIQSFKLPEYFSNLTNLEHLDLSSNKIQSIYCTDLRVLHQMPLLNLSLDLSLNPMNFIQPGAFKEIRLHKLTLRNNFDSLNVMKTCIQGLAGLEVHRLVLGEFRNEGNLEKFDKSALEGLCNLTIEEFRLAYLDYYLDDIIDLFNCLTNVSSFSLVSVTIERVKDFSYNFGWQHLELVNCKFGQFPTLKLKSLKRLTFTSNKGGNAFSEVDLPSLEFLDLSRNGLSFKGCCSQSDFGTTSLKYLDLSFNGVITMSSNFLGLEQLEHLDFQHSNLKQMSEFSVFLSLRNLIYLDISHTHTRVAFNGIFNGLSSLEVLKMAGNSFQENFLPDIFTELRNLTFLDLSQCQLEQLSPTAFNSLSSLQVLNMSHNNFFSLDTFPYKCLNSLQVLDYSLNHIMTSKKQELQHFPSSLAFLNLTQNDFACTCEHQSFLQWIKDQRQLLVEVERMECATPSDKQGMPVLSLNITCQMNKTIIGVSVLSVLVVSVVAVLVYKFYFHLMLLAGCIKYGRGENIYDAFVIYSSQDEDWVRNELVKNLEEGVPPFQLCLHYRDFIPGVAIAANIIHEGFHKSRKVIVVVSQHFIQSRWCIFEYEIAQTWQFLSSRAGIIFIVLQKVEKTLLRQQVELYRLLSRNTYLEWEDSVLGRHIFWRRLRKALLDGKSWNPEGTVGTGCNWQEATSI

[4] = target: Toll-like receptor 1/2 (Mus musculus) (UniProt Q9QUN7+Q9EPQ1); assay: Antagonist activity at TLR2/1 in mouse RAW264.7 cells assessed as reduction in PAM3CSK4-induced TNFalpha secretion at 20 to 80 uM after 24 hrs by ELISA; format: cell-based
[5] = target: T1, Toll-like receptor 9 (Mus musculus) (UniProt Q9EQU3); assay: Antagonist activity at TLR9 in mouse RAW264.7 cells assessed as reduction in CpG ODN-induced TNFalpha secretion at 20 to 80 uM after 24 hrs by ELISA; format: cell-based
T1 sequence (whole entry): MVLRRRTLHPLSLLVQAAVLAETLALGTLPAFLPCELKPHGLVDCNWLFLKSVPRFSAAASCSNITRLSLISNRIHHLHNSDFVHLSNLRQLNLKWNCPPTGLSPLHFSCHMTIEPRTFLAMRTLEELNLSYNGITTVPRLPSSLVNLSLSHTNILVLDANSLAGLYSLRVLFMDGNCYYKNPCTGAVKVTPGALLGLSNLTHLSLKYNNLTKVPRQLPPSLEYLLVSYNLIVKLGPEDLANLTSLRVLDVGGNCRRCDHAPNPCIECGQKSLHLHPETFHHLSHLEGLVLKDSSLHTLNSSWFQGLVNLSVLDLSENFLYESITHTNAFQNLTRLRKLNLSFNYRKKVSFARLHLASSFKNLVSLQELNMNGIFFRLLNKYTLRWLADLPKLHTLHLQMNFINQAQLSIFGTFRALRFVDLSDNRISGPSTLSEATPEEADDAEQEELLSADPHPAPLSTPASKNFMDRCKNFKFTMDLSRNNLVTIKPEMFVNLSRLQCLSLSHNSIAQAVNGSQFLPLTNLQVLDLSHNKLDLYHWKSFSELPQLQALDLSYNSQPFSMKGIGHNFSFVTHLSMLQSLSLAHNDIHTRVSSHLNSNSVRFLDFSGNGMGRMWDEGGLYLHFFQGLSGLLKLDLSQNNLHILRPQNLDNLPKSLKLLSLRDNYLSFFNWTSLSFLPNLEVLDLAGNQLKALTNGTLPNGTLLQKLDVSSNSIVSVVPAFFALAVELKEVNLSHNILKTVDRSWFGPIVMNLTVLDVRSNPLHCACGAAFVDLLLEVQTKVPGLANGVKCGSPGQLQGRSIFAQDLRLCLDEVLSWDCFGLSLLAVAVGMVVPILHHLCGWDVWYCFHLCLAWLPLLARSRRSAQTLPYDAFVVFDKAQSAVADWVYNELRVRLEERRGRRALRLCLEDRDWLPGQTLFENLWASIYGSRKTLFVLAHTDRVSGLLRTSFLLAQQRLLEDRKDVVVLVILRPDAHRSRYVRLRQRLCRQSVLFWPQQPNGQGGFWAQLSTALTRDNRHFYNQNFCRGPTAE

[6] = target: T2, Toll-like receptor 4 (Mus musculus) (UniProt Q9QUK6); assay: Antagonist activity at TLR4 in mouse BMDM cells assessed as reduction in LPS-induced TNFalpha secretion at 20 to 80 uM after 24 hrs by ELISA; format: cell-based
T2 sequence (whole entry): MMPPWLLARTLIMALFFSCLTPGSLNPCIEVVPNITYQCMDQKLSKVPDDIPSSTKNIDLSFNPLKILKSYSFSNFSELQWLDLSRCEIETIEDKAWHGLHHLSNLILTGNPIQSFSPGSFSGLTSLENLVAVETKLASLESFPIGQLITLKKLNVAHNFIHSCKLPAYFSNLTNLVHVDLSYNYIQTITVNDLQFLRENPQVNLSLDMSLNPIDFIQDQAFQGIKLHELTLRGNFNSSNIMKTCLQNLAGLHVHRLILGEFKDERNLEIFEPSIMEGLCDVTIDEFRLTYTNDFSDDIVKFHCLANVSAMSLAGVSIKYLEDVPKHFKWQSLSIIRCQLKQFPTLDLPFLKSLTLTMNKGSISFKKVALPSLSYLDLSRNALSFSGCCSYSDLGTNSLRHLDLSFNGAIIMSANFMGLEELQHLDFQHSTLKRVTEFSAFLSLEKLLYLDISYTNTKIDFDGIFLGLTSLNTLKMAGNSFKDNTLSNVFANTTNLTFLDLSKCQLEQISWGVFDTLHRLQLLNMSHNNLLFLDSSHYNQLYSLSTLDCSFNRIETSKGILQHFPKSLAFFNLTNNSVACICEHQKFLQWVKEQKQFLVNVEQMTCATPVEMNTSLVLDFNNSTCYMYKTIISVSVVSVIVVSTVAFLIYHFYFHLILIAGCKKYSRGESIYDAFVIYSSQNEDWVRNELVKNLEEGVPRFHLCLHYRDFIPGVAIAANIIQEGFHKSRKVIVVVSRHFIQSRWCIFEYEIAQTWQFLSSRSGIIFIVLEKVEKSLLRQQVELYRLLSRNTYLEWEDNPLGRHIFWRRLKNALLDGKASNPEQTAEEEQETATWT

Activity [2]	Activity [3]	Activity [4]	Activity [5]	Activity [6]	Compound	Activity [1]
Active	–	–	–	–	CC[C@H](C)[C@@H]1NC(=O)[C@H](Cc2c[nH]c3ccccc23)NC(=O)[C@H](Cc2c[nH]c3ccccc23)NC(=O)[C@@H](NC(=O)[C@H](CO)NC(=O)[C@H](Cc2ccccc2)NC(=O)[C@@H](NC(=O)CNC(=O)[C@@H](N)CC(C)C)C(C)C)CC(=O)NCCCC[C@@H](C(=O)N[C@@H](CC(C)C)C(=O)N[C@H](C(=O)O)C(C)C)NC1=O (H-LGVFSDWWIKLV-OH; lactam 6-10)	Active
–	Active	inactive	inactive	Active	H-LGVFSSWWIKLV-OH	–
